Measurements: patent publication US20080235824A1, “Use of Esterase Genes as Selectable Markers for Transforming Plant Cells” (priority 2006, published 2008)

Tests used:
[1] = system: tomato cultivar Micro-Tom leaf explants; assay: Agrobacterium transformation of tomato with selection on detergent or kanamycin; assay type: cell-based, Lycopersicon esculentum; conditions: tomato Micro-Tom, pIPG768 nptII, 100 micrograms/ml kanamycin, Exp. 1, 98 explants; for Transformation frequency (%): confirmed by PCR
Excerpt: Transgenic tomato (Lycopersicon esculentum) cultivar “Micro-Tom” plants were created using the Agrobacterium tumefaciens DNA delivery method [Riggs et al., 2001; Sun et al., 2006] using pIPG768. Selection was either on 1% Tween 20 added to both shoot and root regeneration media. As controls for comparative purposes, 100 micrograms/ml kanamycin was used.

[2] = system: tobacco cultivar Xanthi leaf explants; assay: Agrobacterium transformation of tobacco with selection on detergent or kanamycin; assay type: cell-based, Nicotiana tabacum; conditions: tobacco Xanthi, pIPG786 nptII, 100 micrograms/ml kanamycin, 235 explants
Excerpt: Transgenic tobacco (Nicotiana tabacum) cultivar “Xanthi” plants were created using the Agrobacterium tumefaciens DNA delivery method [Horsch et al., 1985] using pIPG833. Selection was on 1% or on 0.05% Tween 20 added to both shoot and root regeneration media. As a control for comparative purposes, pIPG786 was used (carrying the nptII gene for kanamycin resistance) for transformation and 100 micrograms/ml kanamycin was used for selection.
Transgenic tobacco (Nicotiana tabacum) cultivar “Xanthi” plants were created using the Agrobacterium tumefaciens DNA delivery method [Horsch et al., 1985] using pIPG833. Selection was on 1% or on 0.05% Span 20 added to both shoot and root regeneration media.
Transgenic tobacco (Nicotiana tabacum) cultivar “Xanthi” plants were created using the Agrobacterium tumefaciens DNA delivery method [Horsch et al., 1985] using pIPG875. Selection was on 1% Span 20 added to the shoot regeneration medium and 0.05% Span 20 added to the root regeneration medium.

[3] = system: geranium petiole explants; assay: Survival of geranium petiole explants on regeneration medium with detergents; assay type: cell-based, Pelargonium X hortorum; conditions: for Survival of geranium petiole explants on regeneration medium: surviving/total explants
Protocol: Tween 20, a nonionic, fatty acid ester detergent, was evaluated as a potential selective agent for use in geranium (Pelargonium X hortorum) transformation experiments by placing geranium petiole explants into tissue culture with the addition to Tween 20 to the regeneration (shooting) medium normally used in geranium transformations (Robichon et al., 1995). Tween 20 was added at three concentrations: 1%, 0.1% and 0.01%. Each treatment consisted of 40 sterilized petiole explants placed in four tissue culture plates carrying 10 explants each. Survival of the explants was assayed weekly over four weeks on these media. Potential selective agent Span 20, also a nonionic, fatty acid ester detergent, was similarly evaluated, except that concentrations of 1%, 0.5% and 0.25% were evaluated over a twelve week period of time. The nonionic detergent Triton X-100, which is not a fatty acid ester detergent, was included for comparative purposes.

[4] = system: tomato leaf explants; assay: Survival of tomato leaf explants on regeneration medium with detergents; assay type: cell-based, Lycoperisicon esculentum; conditions: 1% detergent; for Survival of tomato leaf explants on regeneration medium: surviving/total explants
Protocol: Tween 20 was similarly evaluated as a potential selective agent for use in tomato (Lycoperisicon esculentum) transformations by placing tomato leaf explants placed into tissue culture; Tween 20 was added to tomato regeneration (shooting) medium normally used in tomato transformations (Riggs et al., 2001) at a 1% concentration. Each treatment consisted of 40 sterilized leaf explants placed in four tissue culture plates carrying 10 explants each. Survival of the explants was assayed weekly over four weeks on these media.

In the case of `NC[C@H]1O[C@H](O[C@H]2[C@H](O)[C@@H](O[C@H]3O[C@H](CO)[C@@H](O)[C@H](N)[C@H]3O)[C@H](N)C[C@@H]2N)[C@H](O)[C@@H](O)[C@@H]1O` [kanamycin, reference compound], the “No. of independent calli forming shoots” value [1] is reported as 40, the “No. of rooted shoots” value [1] is reported as 40 and the “Transformation frequency (%)” value [1] is reported as 1%. For the same compound, the “Transformation frequency (%)” value ([1]; listed as Kanamycin) was 1%, the “No. of independent calli forming shoots” value [2] was 55 and the “No. of rooted shoots” value [2] was 55. The “Transformation frequency (%)” value ([2]; confirmed by PCR) was 19%.
In the case of Triton X-100, the “Survival of geranium petiole explants on regeneration medium” value (from here on “Survival of geranium petiole explants”) ([3]; 0.01% detergent, Week 1) is reported as 39/40, the “Survival of geranium petiole explants” value ([3]; 0.01% detergent, Week 2) is reported as 39/40 and the “Survival of geranium petiole explants” value ([3]; 0.01% detergent, Week 3) is reported as 39/40. For the same compound, the “Survival of geranium petiole explants” value ([3]; 0.01% detergent, Week 4) was 14/40, the “Survival of geranium petiole explants” value ([3]; 0.1% detergent, Week 1) was 40/40 and the “Survival of geranium petiole explants” value ([3]; 0.1% detergent, Week 2) was 40/40. For the same compound, the “Survival of geranium petiole explants” value ([3]; 0.1% detergent, Week 3) was 40/40, the “Survival of geranium petiole explants” value ([3]; 0.1% detergent, Week 4) was 9/40 and the “Survival of geranium petiole explants” value ([3]; 1% detergent, Week 1) was 39/40. For the same compound, the “Survival of geranium petiole explants” value ([3]; 1% detergent, Week 2) was 39/40, the “Survival of geranium petiole explants” value ([3]; 1% detergent, Week 3) was 37/40 and the “Survival of geranium petiole explants” value ([3]; 1% detergent, Week 4) was 19/40. For the same compound, the “Killing of geranium explants in tissue culture (in words)” value ([3]; summary of Table 1) was “much less efficient and much more variable in killing”, the “Survival of tomato leaf explants on regeneration medium” value (“Survival of tomato leaf explants” below) ([4]; Week 1) was 40/40 and the “Survival of tomato leaf explants” value ([4]; Week 2) was 40/40. For the same compound, the “Survival of tomato leaf explants” value ([4]; Week 3) was 10/40, the “Survival of tomato leaf explants” value ([4]; Week 4) was 7/40 and the “Killing of tomato explants in tissue culture (in words)” value ([4]; summary of Table 2) was “both less effective and unpredictable in killing”.
